In ChEMBL document CHEMBL1130593, “The importance of GLU361 position in the reaction catalyzed by cholesterol oxidase” (Bioorg Med Chem Lett, 1998):

Legend:
[1] = test system: Streptomyces; test: Steady-state kinetic parameter on E361D mutant cholesterol oxidase
[2] = test system: Streptomyces; test: Steady-state kinetic parameter on wild-type cholesterol oxidase

Compound: CC(C)CCC[C@@H](C)[C@H]1CC[C@H]2[C@@H]3CC=C4CC(=O)CC[C@]4(C)[C@H]3CC[C@]12C
- Km [1]: 1.4 µM
- k cat [1]: 0.2 s⁻¹
- Km [2]: 6.2 µM
- k cat [2]: 64 s⁻¹

Compound: CC(C)CCC[C@@H](C)[C@H]1CC[C@H]2[C@@H]3CC=C4C[C@@H](O)CC[C@]4(C)[C@H]3CC[C@]12C
- Km [1]: 0.6 µM
- k cat [1]: 4.2 s⁻¹
- Km [2]: 3 µM
- k cat [2]: 44 s⁻¹
